Measured values taken from patent US20240343704A1, “HALO-SUBSTITUTED AMINO PYRIDINE COMPOUNDS AS INHIBITORS OF THE HAEMATOPOIETIC PROGENITOR KINASE 1 (HPK1)” (priority 2021, published 2024).

Key:
[1] = target: T1, Recombinant (1-346) HPK1 (h) (Homo sapiens, UniProt Q92918); experiment: HPK1 Human STE Kinase Enzymatic Radiometric Assay; type: biochemical; settings: read-out: HPK1 IC50 nM Range*
T1 construct: Recombinant (1-346) HPK1 (h) is incubated with 8 mM MOPS pH 7.0
T1 sequence (Q92918 1-346): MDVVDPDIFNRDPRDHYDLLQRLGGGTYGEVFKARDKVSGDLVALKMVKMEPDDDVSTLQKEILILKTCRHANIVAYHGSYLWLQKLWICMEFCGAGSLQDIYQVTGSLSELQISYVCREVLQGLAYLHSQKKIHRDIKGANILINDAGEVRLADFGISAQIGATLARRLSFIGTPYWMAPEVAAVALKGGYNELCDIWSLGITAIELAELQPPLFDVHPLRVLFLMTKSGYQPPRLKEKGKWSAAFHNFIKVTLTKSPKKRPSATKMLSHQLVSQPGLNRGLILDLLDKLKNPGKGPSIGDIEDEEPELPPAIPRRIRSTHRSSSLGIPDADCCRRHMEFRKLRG
Experimental: A stock solution of 10 mM of test compound is prepared in DMSO. The compound plate was prepared by 3-fold and 9-point serial dilutions. […] The reaction is initiated by The addition of the Mg/ATP mix. After incubation for 40 minutes at RT, the reaction is stopped by the addition of phosphoric acid to a concentration of 0.5%.

Lck (h) = Lck (h) (Homo sapiens, UniProt P06239); experiment: Lck Human  Kinase Enzymatic Radiometric Assay; type: biochemical; settings: read-out: Lck IC50 nM Range*
Method in brief: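 Substrate 33P-incorporation measured by scintillation counting after spotting on P30 filtermat and phosphoric acid washes. Human Lck reacted 40 min at RT in 50 mM Tris pH 7.5 with 10 mM MgAcetate, [gamma-33P]-ATP, 250 uM Cdc2 peptide, 0.1 mM EGTA and 0.1 mM Na3VO4.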

Chain of Lck (h) (P06239 whole entry): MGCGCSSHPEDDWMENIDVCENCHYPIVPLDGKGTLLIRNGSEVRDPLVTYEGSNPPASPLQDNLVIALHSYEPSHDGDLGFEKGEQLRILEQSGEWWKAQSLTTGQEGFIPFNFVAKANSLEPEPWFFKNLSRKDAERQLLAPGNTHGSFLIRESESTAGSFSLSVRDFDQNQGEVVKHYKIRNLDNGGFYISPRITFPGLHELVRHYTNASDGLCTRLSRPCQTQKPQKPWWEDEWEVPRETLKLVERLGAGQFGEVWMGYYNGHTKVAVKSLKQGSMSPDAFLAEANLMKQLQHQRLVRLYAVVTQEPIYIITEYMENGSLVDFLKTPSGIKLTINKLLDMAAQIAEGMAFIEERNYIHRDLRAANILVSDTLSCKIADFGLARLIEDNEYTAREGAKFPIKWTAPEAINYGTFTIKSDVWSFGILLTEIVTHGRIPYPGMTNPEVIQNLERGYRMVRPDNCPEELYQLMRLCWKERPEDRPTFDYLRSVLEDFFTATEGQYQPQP

SMILES	IC50 [1]	IC50 (Lck (h))
COCCN1CCC2(CCc3cc(-c4cc(-c5ccc6c(c5)CCNC6=O)c(N)nc4F)ccc3O2)CC1 [I-216, 6-(2-amino-6-fluoro-5-(1′-(2-methoxyethyl)spiro[chromane-2,4′-piperidin]-6-yl)pyridin-3-yl)-3,4-dihydroisoquinolin-1(2H)-one]	0.1 to 10 nM	> 1000 nM
COCCN1CCC(Oc2ccc(-c3cc(-c4ccc5c(c4)CCNC5=O)c(N)nc3F)cc2C#N)CC1 [I-217, 5-(6-amino-2-fluoro-5-(1-oxo-1,2,3,4-tetrahydroisoquinolin-6-yl)pyridin-3-yl)-2-((1-(2-methoxyethyl)piperidin-4-yl)oxy)benzonitrile]	0.1 to 10 nM	> 1000 nM
CC(C)N1CCC2(CC1)OCc1cc(-c3cc(-c4ccc5c(c4)CCNC5=O)c(N)nc3F)ccc1O2 [I-218, 6-(2-amino-6-fluoro-5-(1′-isopropyl-4H-spiro[benzo[d][1,3]dioxine-2,4′-piperidin]-6-yl)pyridin-3-yl)-3,4-dihydroisoquinolin-1(2H)-one]	0.1 to 10 nM	> 1000 nM
Nc1nc(F)c(-c2ccc(N3CCNCC3)c(C(F)(F)F)c2)cc1-c1cc2c(cc1F)C(=O)NCC2 [I-219, 6-(2-amino-6-fluoro-5-(4-(piperazin-1-yl)-3-(trifluoromethyl)phenyl)pyridin-3-yl)-7-fluoro-3,4-dihydroisoquinolin-1(2H)-one]	0.1 to 10 nM	> 1000 nM
COCC(=O)N1C[C@H]2C[C@@]2(c2ccc(-c3cc(-c4ccc5c(c4)CCNC5=O)c(N)nc3F)cc2)C1 [I-220, 6-(2-amino-6-fluoro-5-(4-((1R,5S)-3-(2-methoxyacetyl)-3-azabicyclo[3.1.0]hexan-1-yl)phenyl)pyridin-3-yl)-3,4-dihydroisoquinolin-1(2H)-one]	0.1 to 10 nM	> 1000 nM
CC(=O)N1CCN(c2ccc(-c3cc(-c4cc5c(cc4F)C(=O)NCC5)c(N)nc3F)cn2)CC1 [I-221, 6-(6′-(4-acetylpiperazin-1-yl)-6-amino-2-fluoro-[3,3′-bipyridin]-5-yl)-7-fluoro-3,4-dihydroisoquinolin-1(2H)-one 2,2,2-trifluoroacetate]	11 to 100 nM	> 1000 nM
CC(C)N1CCC2(CC1)CC(=O)c1cc(-c3cc(-c4ccc5c(c4)CCNC5=O)c(N)nc3F)ccc1O2 [I-222, 6-(6-amino-2-fluoro-5-(1-oxo-1,2,3,4-tetrahydroisoquinolin-6-yl)pyridin-3-yl)-1′-isopropylspiro[chromane-2,4′-piperidin]-4-one]	0.1 to 10 nM	> 1000 nM
CC(C)N1CCC2(CCc3cc(-c4cc(-c5ccc6c(c5)CCNC6=O)c(N)nc4F)ccc3O2)CC1 [I-223, 6-(2-amino-6-fluoro-5-(1′-isopropylspiro[chromane-2,4′-piperidin]-6-yl)pyridin-3-yl)-3,4-dihydroisoquinolin-1(2H)-one]	0.1 to 10 nM	> 1000 nM
CC(C)N1CCC(Oc2ccc(-c3cc(-c4ccc5c(c4)CCNC5=O)c(N)nc3F)cc2C#N)CC1 [I-224, 5-(6-amino-2-fluoro-5-(1-oxo-1,2,3,4-tetrahydroisoquinolin-6-yl)pyridin-3-yl)-2-((1-isopropylpiperidin-4-yl)oxy)benzonitrile]	0.1 to 10 nM	> 1000 nM
CN(C)CC(=O)N1C[C@H]2C[C@@]2(c2ccc(-c3cc(-c4ccc5c(c4)CCNC5=O)c(N)nc3F)cc2)C1 [I-225, 6-(2-amino-5-(4-((1R,5S)-3-(dimethylglycyl)-3-azabicyclo[3.1.0]hexan-1-yl)phenyl)-6-fluoropyridin-3-yl)-3,4-dihydroisoquinolin-1(2H)-one]	0.1 to 10 nM	> 1000 nM
CC(C)N1CCN(c2ccc(-c3cc(-c4cc5c(cc4F)C(=O)NCC5)c(N)nc3F)cn2)CC1 [I-226, 6-(6-amino-2-fluoro-6′-(4-isopropylpiperazin-1-yl)-[3,3′-bipyridin]-5-yl)-7-fluoro-3,4-dihydroisoquinolin-1(2H)-one]	0.1 to 10 nM	> 1000 nM
Nc1cc2cc(-c3cc(-c4ccc5c(c4)CCNC5=O)c(N)nc3F)c(F)c(Cl)c2cn1 [I-227, 6-(2-amino-5-(3-amino-8-chloro-7-fluoroisoquinolin-6-yl)-6-fluoropyridin-3-yl)-3,4-dihydroisoquinolin-1(2H)-one]	11 to 100 nM	> 1000 nM
CC(C)N1CCc2cc(-c3cc(-c4ccc5c(c4)CCNC5=O)c(N)nc3F)nn2CC1=O [I-228, 2-(6-amino-2-fluoro-5-(1-oxo-1,2,3,4-tetrahydroisoquinolin-6-yl)pyridin-3-yl)-6-isopropyl-5,6-dihydro-4H-pyrazolo[1,5-d][1,4]diazepin-7(8H)-one]	11 to 100 nM	> 1000 nM
Nc1nc(F)c(-c2cc3n(n2)CC(=O)NCC3)cc1-c1ccc2c(c1)CCNC2=O [I-229, 2-(6-amino-2-fluoro-5-(1-oxo-1,2,3,4-tetrahydroisoquinolin-6-yl)pyridin-3-yl)-5,6-dihydro-4H-pyrazolo[1,5-d][1,4]diazepin-7(8H)-one]	11 to 100 nM	> 1000 nM
CN1CC=C(c2ccc(-c3cc(-c4ccc5c(c4)CCNC5=O)c(N)nc3Cl)cc2)CC1 [I-230, 6-(2-amino-6-chloro-5-(4-(1-methyl-1,2,3,6-tetrahydropyridin-4-yl)phenyl)pyridin-3-yl)-3,4-dihydroisoquinolin-1(2H)-one]	11 to 100 nM	> 1000 nM
CN1CCC(c2ccc(-c3cc(-c4ccc5c(c4)CCNC5=O)c(N)nc3Cl)cc2)CC1 [I-231, 6-(2-amino-6-chloro-5-(4-(1-methylpiperidin-4-yl)phenyl)pyridin-3-yl)-3,4-dihydroisoquinolin-1(2H)-one]	11 to 100 nM	> 1000 nM
CN1CC=C(c2ccc(-c3cc(-c4cc5c(cc4F)C(=O)NCC5)c(N)nc3Cl)cc2)CC1 [I-232, 6-(2-amino-6-chloro-5-(4-(1-methyl-1,2,3,6-tetrahydropyridin-4-yl)phenyl)pyridin-3-yl)-7-fluoro-3,4-dihydroisoquinolin-1(2H)-one]	11 to 100 nM	> 1000 nM
CN1CCC(c2ccc(-c3cc(-c4cc5c(cc4F)C(=O)NCC5)c(N)nc3Cl)cc2)CC1 [I-233, 6-(2-amino-6-chloro-5-(4-(1-methylpiperidin-4-yl)phenyl)pyridin-3-yl)-7-fluoro-3,4-dihydroisoquinolin-1(2H)-one]	11 to 100 nM	> 1000 nM
Cc1c(N)cncc1-c1cc(-c2ccc3c(c2)CCNC3=O)c(N)nc1F [I-234, 6-(5,6-diamino-2-fluoro-4′-methyl-[3,3′-bipyridin]-5-yl)-3,4-dihydroisoquinolin-1(2H)-one 2,2,2-trifluoroacetate]	> 1000 nM	> 1000 nM
CCN1CCC(c2ccc(-c3cc(-c4ccc5c(c4)CCNC5=O)c(N)nc3F)cc2)C1 (stereo not shown) [I-235, 6-(2-amino-5-(4-(1-ethylpyrrolidin-3-yl)phenyl)-6-fluoropyridin-3-yl)-3,4-dihydroisoquinolin-1(2H)-one]	0.1 to 10 nM	> 1000 nM
Nc1nc(F)c(-c2ccc(N3CCN(CC(F)F)CC3)cc2)cc1-c1cc2c(cc1F)C(=O)NCC2 [I-236, 6-(2-amino-5-(4-(4-(2,2-difluoroethyl)piperazin-1-yl)phenyl)-6-fluoropyridin-3-yl)-7-fluoro-3,4-dihydroisoquinolin-1(2H)-one]	0.1 to 10 nM	> 1000 nM
Nc1nc(F)c(-c2ccc(N3CCN(CC(F)(F)F)CC3)cc2)cc1-c1cc2c(cc1F)C(=O)NCC2 [I-237, 6-(2-amino-6-fluoro-5-(4-(4-(2,2,2-trifluoroethyl)piperazin-1-yl)phenyl)pyridin-3-yl)-7-fluoro-3,4-dihydroisoquinolin-1(2H)-one]	0.1 to 10 nM	> 1000 nM
Nc1nc(F)c(-c2ccc(C3CCNCC3)cc2)cc1-c1cc2c(cc1F)C(=O)NCC2 [I-238, 6-(2-amino-6-fluoro-5-(4-(piperidin-4-yl)phenyl)pyridin-3-yl)-7-fluoro-3,4-dihydroisoquinolin-1(2H)-one 2,2,2-trifluoroacetate]	0.1 to 10 nM	> 1000 nM
CC(C)N1CCC(F)(c2ccc(-c3cc(-c4ccc5c(c4)CCNC5=O)c(N)nc3F)cc2)CC1 [I-239, 6-(2-amino-6-fluoro-5-(4-(4-fluoro-1-isopropylpiperidin-4-yl)phenyl)pyridin-3-yl)-3,4-dihydroisoquinolin-1(2H)-one]	0.1 to 10 nM	> 1000 nM
Nc1nc(F)c(-c2ccc(N3CCN(CCC(F)(F)F)CC3)cc2)cc1-c1ccc2c(c1)CCNC2=O [I-240, 6-(2-amino-6-fluoro-5-(4-(4-(3,3,3-trifluoropropyl)piperazin-1-yl)phenyl)pyridin-3-yl)-3,4-dihydroisoquinolin-1(2H)-one]	0.1 to 10 nM	> 1000 nM
COCCN1CCC(c2ccc(-c3cc(-c4cc5c(cc4F)C(=O)NCC5)c(N)nc3F)cc2)CC1 [I-241, 6-(2-amino-6-fluoro-5-(4-(1-(2-methoxyethyl)piperidin-4-yl)phenyl)pyridin-3-yl)-7-fluoro-3,4-dihydroisoquinolin-1(2H)-one]	0.1 to 10 nM	> 1000 nM
